Measured values taken from patent US20200237700A1, “METHODS OF REDUCING OR PREVENTING OXIDATION OF SMALL DENSE LDL OR MEMBRANE POLYUNSATURATED FATTY ACIDS” (Amarin Pharmaceuticals Ireland Limited, priority 2015, published 2020).
Where “and” joins values, the source holds several entries; their conditions need not be identical. Equal values may be shown once.

Assays:
[1] = system: human LDL (unfractionated); assay: Copper-induced unfractionated LDL oxidation, TBARS 1 hr (Example 7); format: biochemical; settings: 10 μM
Protocol: (§1) An experiment to study the antioxidant effect of EPA in LDL and small dense […] performed. […] Fenofibrate, gemfibrozil, and niacin were purchased from Sigma-Aldrich. […] Vitamin E was also incubated with sample aliquots as a positive control.

[2] = system: sdLDL isolated from human subjects under hyperglycemia; assay: Glucose-induced sdLDL oxidation, TBARS/MDA (Example 10); format: biochemical; settings: 10.0 μM; glucose 200 mg/dL
Protocol: Vitamin E (α-tocopherol) purchased from Sigma-Aldrich was prepared in ethanol at 1.0 mM (c=3.06×10^4 M^−1 cm^−1 at 294 nm) prior to experimental use. Test compounds were further diluted in ethanol or aqueous buffer as needed. Phosphate Buffered Saline (PBS) purchased from Sigma-Aldrich was prepared in double distilled water at 10 mM (138 mM NaCl, 2.7 mM KCl, pH 7.4). […] Lipid oxidation was measured by the colorimetric detection of malondialdehyde (MDA), a marker of oxidative stress. Data were presented as mean±SD for (n) separate samples or experiments. Differences between groups were analyzed using the unpaired, two-tailed Student's t-test (for comparisons between only two groups) or ANOVA followed by Student-Newman-Keuls multiple comparisons post hoc analysis (for comparisons between three or more groups).

[3] = Small angle x-ray diffraction of cholesterol-enriched POPC model membranes, cholesterol domain peak intensity (Example 9); format: physicochemical
Protocol: The fatty acid stock solutions were stored at −20° C. until use. […] Samples were shell-dried under nitrogen gas and placed under vacuum for 3 hours to remove residual solvent at room temperature. After desiccation, each sample was resuspended in saline buffer (0.5 mM HEPES, 154 mM NaCl, pH 7.3) to yield a final phospholipid concentration of 2.5 mg/mL. Lipid suspensions were then vortexed for 3 minutes at ambient temperature to form MLVs. Membrane lipid vesicles were oriented for x-ray diffraction analysis as described by others (e.g., Herbette et al., Biophys. […] Briefly, a 100 μL aliquot of each MLV preparation (containing 250 μg MLV) was transferred to a Lucite® sedimentation cell fitted with an aluminum foil substrate designed to collect MLVs into a single membrane pellet upon centrifugation. […] After centrifugal orientation, sample supernatants were aspirated and aluminum foil substrates, each supporting a single membrane pellet, were removed from the sedimentation cells. Sample pellets were dried for 5-10 minutes at ambient conditions, mounted onto curved glass supports, and placed in hermetically-sealed, brass or glass containers (for immediate analysis or temporary storage, respectively). All x-ray diffraction experiments were conducted at 20° C., 74% relative humidity. The latter was established by exposing membrane samples to saturated solutions of L-(+)-tartaric acid (K2C4H4O6.½H2O) for at least 1 hour prior to experimental analysis. Oriented membrane samples were aligned at grazing incidence with respect to a collimated, mono-chromatic CuKα x-ray beam (Kα1 and Kα2 unresolved; λ=1.54 Å) produced by a Rigaku Rotaflex RU-200, high-brilliance microfocus generator (Rigaku-MSC, The Woodlands, Tex.) as previously described (Mason et al., Biophys. J., vol. 55(4), pages 769-778 (1989)). The samples were initially subjected to x-ray diffraction analysis at least 12 hours after formation of the membrane pellets and retested for up to several days. […] Collimation of the x-ray beam was achieved using a single Franks mirror. Diffraction data were collected on a one-dimensional, position-sensitive electron detector (Hecus X-ray Systems, Graz, Austria) at a sample-to-detector distance of 150 mm from the sample site. […] Routines written in Origin 8.6 (OriginLab Corporation, Northampton, Mass.) were used to determine total peak area (associated with all diffraction peaks in a given pattern) against which the second-order cholesterol domain peak was normalized. […] Differences between groups were analyzed using the two-tailed, Student's t-test (for comparisons between only two groups) or ANOVA followed by Dunnett or Student-Newman-Keuls multiple comparisons post-hoc analysis (for comparisons between three or more groups). […]

[4] = system: HUVECs exposed to oxLDL; assay: NO and ONOO− release from HUVECs exposed to oxLDL, nanosensors (Example 8); format: cell-based, human
Protocol: Human umbilical vein endothelial cells (HUVECs) were isolated into primary cultures from female donors by Clonetics (San Diego, Calif.) and purchased as proliferating cells. All cell culture donors were healthy, with no pregnancy or prenatal complications. […] The confluent cells (4 to 5×10^5 cells/35 mm dish) were placed with minimum essential medium containing 3 mM L-arginine and 0.1 mM BH4 [(6R)-5,6,7,8-tetrahydrobiopterin]. Before experimental use, the cells (from second or third passage) were rinsed twice with Tyrode-HEPES buffer with 1.8 mM CaCl2.
The omega-3 fatty acids (O3FAs) cis-5,8,11,14,17-eicosapentaenoic acid (EPA) and docosahexaenoic acid (DHA) were purchased from Sigma-Aldrich (St. Louis, Mo.) and prepared initially at 11 mM in redistilled ethanol. Primary and secondary O3FA stock solutions were prepared and stored under argon at −20° C. […]
Oxidation was monitored by the use of measurements of TBARS. […] TBARS concentration was determined as malondialdehyde (MDA) equivalents with the use of an MDA standard curve. […]
The amperometric method (with a response time of 0.1 ms) provides a quantitative signal (current) that is directly proportional to changes (from basal levels) in NO or ONOO^− concentration. […] Basal NO or ONOO^− levels were measured by differential pulse voltammetry in separate experiments. […]

[5] = system: human sdLDL; assay: Copper-induced sdLDL oxidation, TBARS (Example 7); format: biochemical
Protocol: as §1

[6] = EPA to phospholipid 1:30 (Table 3)

| Compound | effect on unfractionated LDL oxidation as compared to vehicle-treated controls [1] | glucose-induced sdLDL oxidation [2] | effect on cholesterol domains / domain size ([3]; drug-to-phospholipid mole ratio 1:30) | NO/ONOO− Ratio ([4]; oxLDL 20 min, then treatment 1 hour, EPA 10 μM, ATM 1.0 μM) | effect on sdLDL oxidation as compared to vehicle-treated controls ([5]; 10 μM, 1 hour) | inhibited TBARS formation compared to vehicle-treated control ([1]; unfractionated LDL) [%] | inhibited sdLDL oxidation as compared to vehicle controls [2] [%] | sdLDL oxidation (formation of MDA) [2] [µM] | % Change (vs. Control) [3, 6] [%] | Relative Cholesterol Domain Peak Intensity [3, 6] | increased NO release ([4]; ECs exposed to oxLDL, as compared to vehicle) [%] | sdLDL oxidation after 4 hours as compared to vehicle or DHA ([5]; 10.0 μM, 4 hours) | inhibition of sdLDL oxidation vs vehicle ([5]; each agent at 1.0 μM, 1 hr) [%] | inhibited TBARS formation / sdLDL oxidation vs vehicle ([5]; each agent at 10 μM, 1 hr) |
| --- | --- | --- | --- | --- | --- | --- | --- | --- | --- | --- | --- | --- | --- | --- |
| O=C(O)c1cccnc1 [niacin, nicotinic acid] | no significant effect | did not inhibit glucose-induced sdLDL oxidation | no significant changes in cholesterol domain size | 2.00 ± 0.52 | no significant effect |  |  |  |  |  |  |  |  |  |
| CC/C=C\C/C=C\C/C=C\C/C=C\C/C=C\CCCC(=O)O [EPA, cis-5,8,11,14,17-eicosapentaenoic acid] |  |  |  |  |  | > 90 | 94 | 0.2 ± 0.1 | −65.5 ± 17.1 | 14.6 ± 5.0 | 45 | significantly inhibited sdLDL oxidation | 19±8 | 93±2% and 92±8% |
